Assay results taken from patent US20250171431A1, “HETEROCYCLIC INHIBITORS OF IGF-1R FOR TREATMENT OF DISEASE” (HORIZON THERAPEUTICS IRELAND DAC, priority 2023, published 2025).

These compounds were tested against IGF-1R (Homo sapiens (Human), UniProt P08069) (assay: Example B-1: IGF-1R Assay (PC3 cells, IGF1 stimulation, AlphaLISA)). Conditions: 200 ng/mL IGF1 stimulation, read-out: Biological Activity against IGF-1R IC50.
Type: cell-based
Description: 50K PC3 cells were seeded on day 1 in 50 μL of media in 96-well plate and incubated overnight at 37° C., 5% CO2. On day 2, all cells were expected to be at 80-90% confluency. Cells were starved for two hours by changing the media to 90 μL of EMEM serum-free media and incubated for 2 hours. Next, cells were treated with 10 μL of 10× concentrated and 3× serially diluted compounds for two hours. It makes 1× of compounds in 100 μL media. This was followed by stimulation of cells with 11×IGF1 for 30 min in 10 μL of serum-free EMEM media at the final concentration of 200 ng/mL.
The media was removed and replaced by 50 μL of 1× lysis buffer from the AlphaLISA kit (with 1× of cOmplete™ protease inhibitor). The plates were sealed, and cells were allowed to lyse for 10 min in the shaker before storing the plate at −20° C. until used. The AlphaLISA assay with processed cell lysates were performed as described in the protocol. Briefly, 10 μL of the undiluted sample were loaded to 384 well Optiplates and 5 μL of the acceptor mix (as described in the AlphaLISA kit) was added to each well. The plates were sealed and briefly vortexed followed by the incubation at RT for 3 hours. In the dark, 5 μL of donor mix was added to each well. All plates were sealed and stored at RT overnight. The plates were read in EnVision reader using standard AlphaLISA settings.
Compound activity was analyzed using CBIS data analysis suite (ChemInnovation, CA). Percentage inhibition was calculated using the following formula: % Inhibition=100%×(1−(mean RLU of test sample−mean RLU of vehicle control)/(mean RLU of EC80 control−mean RLU of vehicle control)). The activity for representative examples of the invention is shown in the following table, wherein A: IC50≤500 nM; B: 500 nM<IC50≤2 μM; C: 2 μM<IC50≤10 μM; D: IC50>10 μM.

Chain of IGF-1R (P08069 31-1367): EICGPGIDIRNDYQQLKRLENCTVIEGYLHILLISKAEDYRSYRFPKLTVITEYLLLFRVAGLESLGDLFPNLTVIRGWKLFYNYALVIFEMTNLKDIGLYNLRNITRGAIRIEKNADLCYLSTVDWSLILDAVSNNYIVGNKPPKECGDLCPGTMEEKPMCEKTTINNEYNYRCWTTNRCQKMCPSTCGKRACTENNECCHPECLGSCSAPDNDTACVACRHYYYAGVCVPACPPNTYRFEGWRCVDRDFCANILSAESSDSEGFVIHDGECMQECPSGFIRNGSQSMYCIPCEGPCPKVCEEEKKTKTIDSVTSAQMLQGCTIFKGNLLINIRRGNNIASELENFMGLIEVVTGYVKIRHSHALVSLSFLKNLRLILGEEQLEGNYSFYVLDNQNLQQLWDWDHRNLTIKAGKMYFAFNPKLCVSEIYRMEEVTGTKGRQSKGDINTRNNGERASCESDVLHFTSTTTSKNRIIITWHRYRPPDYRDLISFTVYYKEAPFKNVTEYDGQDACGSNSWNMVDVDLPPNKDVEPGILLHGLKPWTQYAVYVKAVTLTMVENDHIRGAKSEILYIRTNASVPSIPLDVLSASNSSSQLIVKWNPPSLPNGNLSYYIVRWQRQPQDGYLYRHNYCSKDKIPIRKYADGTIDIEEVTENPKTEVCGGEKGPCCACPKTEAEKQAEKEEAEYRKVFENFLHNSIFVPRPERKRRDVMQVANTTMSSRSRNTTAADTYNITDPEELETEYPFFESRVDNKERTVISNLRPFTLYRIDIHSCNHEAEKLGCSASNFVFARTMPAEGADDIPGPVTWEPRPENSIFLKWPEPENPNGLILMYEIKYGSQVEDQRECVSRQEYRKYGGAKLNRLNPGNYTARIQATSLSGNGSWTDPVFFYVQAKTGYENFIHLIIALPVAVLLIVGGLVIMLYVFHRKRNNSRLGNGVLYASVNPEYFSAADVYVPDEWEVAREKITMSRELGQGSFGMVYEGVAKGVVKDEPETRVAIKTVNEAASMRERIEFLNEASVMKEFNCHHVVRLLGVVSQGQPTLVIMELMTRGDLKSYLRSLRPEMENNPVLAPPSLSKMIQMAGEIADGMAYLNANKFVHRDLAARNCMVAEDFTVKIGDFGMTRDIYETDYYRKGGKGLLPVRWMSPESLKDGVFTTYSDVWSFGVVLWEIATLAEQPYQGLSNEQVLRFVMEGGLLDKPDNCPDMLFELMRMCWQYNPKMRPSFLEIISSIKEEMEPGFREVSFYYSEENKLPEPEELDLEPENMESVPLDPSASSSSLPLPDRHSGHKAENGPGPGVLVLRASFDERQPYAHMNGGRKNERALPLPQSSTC

Compound	IC50
COC1CCc2ncc(Nc3ccnc(Nc4ccc(OCCCN5CCOCC5)cc4)n3)cc2C1 (centres unmarked) [Compound 67, 4-(6-methoxy-5,6,7,8-tetrahydro-3-quinolylamino)-2-[p-(3-morpholinopropoxy)phenylamino] pyrimidine]	500 to 2000 nM
c1cc(Nc2cnc3c(c2)CC2(CC3)OCCO2)nc(Nc2ccc(OCCCN3CCOCC3)cc2)n1 [Compound 68, 4-(7′,8′-dihydro-5′H-spiro[1,3-dioxolane-2,6′-quinolin]-3′-ylamino)-2-[p-(3-morpholinopropoxy)phenylamino] pyrimidine]	≤ 500 nM
COc1cc(Nc2nccc(Nc3cnc4c(c3)CCC(C)C4)n2)ccc1OCCCN1CCCCC1 (centres unmarked) [Compound 69, 2-[3-methoxy-4-(3-piperidinopropoxy)phenylamino]-4-(7-methyl-5,6,7,8-tetrahydro-3-quinolylamino)pyrimidine]	≤ 500 nM
COc1cc(Nc2nccc(Nc3cnc4c(c3)C3CCC(C4)C3)n2)ccc1OCCCN1CCCCC1 (centres unmarked) [Compound 70, 4-{6-azatricyclo[7.2.1.0^2,7]dodeca-2(7),3,5-trien-4-ylamino}-2-[3-methoxy-4-(3-piperidinopropoxy)phenylamino] pyrimidine]	≤ 500 nM
COc1cc(Nc2nccc(Nc3cnc4c(c3)CC[C@@H](C)C4)n2)ccc1OCCCN1CCCCC1 [Compound 71, 4-[(R)-7-methyl-5,6,7,8-tetrahydro-3-quinolylamino]-2-[3-methoxy-4-(3-piperidinopropoxy)phenylamino] pyrimidine]	≤ 500 nM
CCc1ccc2cc(Nc3ccnc(Nc4ccc(OCCCN5CCCCC5)c(OC)c4)n3)cnc2c1 [Compound 72, 4-(7-ethyl-3-quinolylamino)-2-[3-methoxy-4-(3-piperidinopropoxy)phenylamino]pyrimidine]	≤ 500 nM
COc1cc(Nc2nccc(Nc3cnc4c(c3)CCCC4(C)C)n2)ccc1OCCCN1CCCCC1 [Compound 73, 4-(8,8-dimethyl-5,6,7,8-tetrahydro-3-quinolylamino)-2-[3-methoxy-4-(3-piperidinopropoxy)phenylamino] pyrimidine]	≤ 500 nM
COc1cc(Nc2nccc(Nc3cnc4c(c3)CCCC4C(C)(C)C)n2)ccc1OCCCN1CCCCC1 (centres unmarked) [Compound 74, 4-[8-(tert-butyl)-5,6,7,8-tetrahydro-3-quinolylamino]-2-[3-methoxy-4-(3-piperidinopropoxy)phenylamino] pyrimidine]	≤ 500 nM
COc1cc(Nc2nccc(Nc3cnc4c(c3)C3CCC4CC3)n2)ccc1O[C@H]1C[C@H](N(C)C)C1 [Compound 75, 4-{3-azatricyclo[6.2.2.02,7]dodeca-2(7),3,5-trien-5-ylamino}-2-{3-methoxy-4-[(1r,3r)-3-(dimethylamino)cyclobutoxy]phenylamino}pyrimidine]	≤ 500 nM
COc1cc(Nc2nccc(Nc3cnc4c(c3)C3CCC4C3)n2)ccc1O[C@H]1C[C@H](N(C)C)C1 (some centres unmarked) [Compound 76, 4-(3-azatricyclo[6.2.1.02,7]undeca-2,4,6-trien-5-ylamino)-2-{3-methoxy-4-[(1r,3r)-3-(dimethylamino)cyclobutoxy]phenylamino}pyrimidine]	≤ 500 nM
COc1cc(Nc2nccc(Nc3cnc4c(c3)CCC3(CCCC3)C4)n2)ccc1O[C@H]1C[C@H](N(C)C)C1 [Compound 78, 4-(6′,8′-dihydro-5′H-spiro[cyclopentane-1,7′-quinolin]-3′-ylamino)-2-{3-methoxy-4-[(1r,3r)-3-(dimethylamino)cyclobutoxy]phenylamino}pyrimidine]	≤ 500 nM
COc1cc(Nc2nccc(Nc3cnc4c(c3)CC3(CCCC3)CC4)n2)ccc1O[C@H]1C[C@H](N(C)C)C1 [Compound 79, 4-(7′,8′-dihydro-5′H-spiro[cyclopentane-1,6′-quinolin]-3′-ylamino)-2-{3-methoxy-4-[(1r,3r)-3-(dimethylamino)cyclobutoxy]phenylamino}pyrimidine]	≤ 500 nM
COc1cc(Nc2nccc(Nc3cnc4c(c3)CC3(CCC3)CC4)n2)ccc1O[C@H]1C[C@H](N(C)C)C1 [Compound 80, 4-(7′,8′-dihydro-5′H-spiro[cyclobutane-1,6′-quinolin]-3′-ylamino)-2-{3-methoxy-4-[(1r,3r)-3-(dimethylamino)cyclobutoxy]phenylamino}pyrimidine]	≤ 500 nM
COc1cc(Nc2nccc(Nc3cnc4c(c3)CC(F)(F)CC4)n2)ccc1O[C@H]1C[C@H](N(C)C)C1 [Compound 81, 4-(6,6-difluoro-5,6,7,8-tetrahydro-3-quinolylamino)-2-{3-methoxy-4-[(1r,3r)-3-(dimethylamino)cyclobutoxy]phenylamino}pyrimidine]	≤ 500 nM
COc1cc(Nc2nccc(Nc3cnc4c(c3)CC(O)CC4)n2)ccc1O[C@H]1C[C@@H](N(C)C)C1 (some centres unmarked) [Compound 82, 3-(2-{3-methoxy-4-[(1s,3s)-3-(dimethylamino)cyclobutoxy]phenylamino}-4-pyrimidinylamino)-5,6,7,8-tetrahydro-6-quinolinol]	500 to 2000 nM
COc1cc(Nc2nccc(Nc3cnc4ncc(Cl)cc4c3)n2)ccc1O[C@H]1C[C@@H](N(C)C)C1 [Compound 83, 4-(6-chloro-1,8-diaza-3-naphthylamino)-2-{3-methoxy-4-[(1s,3s)-3-(dimethylamino)cyclobutoxy]phenylamino}pyrimidine]	≤ 500 nM
COc1cc(Nc2nccc(Nc3cnc4c(Cl)cncc4c3)n2)ccc1O[C@H]1C[C@@H](N(C)C)C1 [Compound 84, 4-(8-chloro-1,6-diaza-3-naphthylamino)-2-{3-methoxy-4-[(1s,3s)-3-(dimethylamino)cyclobutoxy]phenylamino}pyrimidine]	500 to 2000 nM
COc1cc(Nc2nccc(Nc3cnc4cc(F)cnc4c3)n2)cnc1O[C@H]1C[C@@H](N(C)C)C1 [Compound 85, 4-(7-fluoro-1,5-diaza-3-naphthylamino)-2-{5-methoxy-6-[(1s,3s)-3-(dimethylamino)cyclobutoxy]-3-pyridylamino}pyrimidine]	500 to 2000 nM
COc1cc(Nc2nccc(Nc3cnc4ncc(F)cc4c3)n2)ccc1O[C@H]1C[C@@H](N(C)C)C1 [Compound 86, 4-(6-fluoro-1,8-diaza-3-naphthylamino)-2-{3-methoxy-4-[(1s,3s)-3-(dimethylamino)cyclobutoxy]phenylamino}pyrimidine]	≤ 500 nM
COc1cc(Nc2nccc(Nc3cnc4cnc(Cl)cc4c3)n2)ccc1O[C@H]1C[C@@H](N(C)C)C1 [Compound 87, 4-(6-chloro-1,7-diaza-3-naphthylamino)-2-{3-methoxy-4-[(1s,3s)-3-(dimethylamino)cyclobutoxy]phenylamino}pyrimidine]	≤ 500 nM
COc1cc(Nc2nccc(Nc3cnc4cncc(F)c4c3)n2)ccc1O[C@H]1C[C@@H](N(C)C)C1 [Compound 88, N2-(4-((1s,3s)-3-(dimethylamino)cyclobutoxy)-3-methoxyphenyl)-N4-(5-fluoro-1,7-naphthyridin-3-yl)pyrimidine-2,4-diamine]	≤ 500 nM
COc1cc(Nc2nccc(Nc3cnc4cc(F)c(F)cc4c3)n2)cnc1OC1CCNCC1 [Compound 89, N4-(6,7-difluoroquinolin-3-yl)-N2-(5-methoxy-6-(piperidin-4-yloxy)pyridin-3-yl)pyrimidine-2,4-diamine]	500 to 2000 nM
COc1nc(N2CCN(C)CC2)ccc1Nc1nccc(Nc2cc3cccc(F)c3nc2O)n1 [Compound 90, 8-fluoro-3-{2-[2-methoxy-6-(4-methyl-1-piperazinyl)-3-pyridylamino]-4-pyrimidinylamino}-2-quinolinol]	≤ 500 nM
